Experiments:
Format in all cases: cell-based
M14 = experiment: NCI-60 one-dose SRB screening; settings: Homo sapiens, M14, Melanoma, 10 µM one dose, 48 h, read-out: growth percentage
Protocol: (§1) The structures of the synthesized compounds 6a–h, 12a–c, 11, 13a–c, and 14a–c were submitted to the National Cancer Institute’s Developmental Therapeutics Program (NCI-DTP), and all of them were selected for preliminary in vitro anticancer activity screening against NCI-59 human cancer cell lines at a concentration of 10 µM, using the sulforhodamine B (SRB) assay to determine the growth percentage and cell viability.
(§2) The in vitro NCI-60 cell line screening assay was conducted at the National Cancer Institute (NCI), Bethesda, USA against 59 cancer cell lines representing 9 types of cancers, as reported earlier. Briefly, the human cancer cell lines were grown in RPMI 1640 medium containing 5% fetal bovine serum and 2 mM L-glutamine and inoculated into 96-well microtiter plates in 100 μL (5000 to 40,000 cells/well). Then, the plates were incubated at 37 °C, 5% CO2, 95% air, and 100% relative humidity for 24 h. After that, two plates of each cell line were fixed in situ with TCA, to represent cell population at time zero (Tz). The tested compounds were dissolved in DMSO at 400-fold and added so that the final concentration became 10 μM. The plates were then incubated for an additional 48 h followed by the addition of cold TCA to terminate the assay in case of adherent cells. Then, the cells were fixed in situ by cold 50% (w/v) TCA (50 μL; final concentration, 10% TCA) and incubated for 1 h at 4 °C. After discarding the supernatant, the plates were washed 5 times with tap water and air dried. Sulforhodamine B (SRB) solution (100 μL) at 0.4% (w/v) in 1% HOAc was added to each well, and plates were incubated for 10 min. at rt. Then, washing with 1% acetic acid was conducted 5 times to remove the unbound dye followed by air drying. After that, 10 mM trizma base was added to solubilize the bound stain, and the absorbance was read on an automated plate reader at a wavelength of 515 nm. On the other hand, the methodology for suspension cells was the same except that 50 μL of 80% TCA (final concentration, 16% TCA) was gently added to terminate the assay by fixing settled cells at the bottom of the wells. Percentage growth inhibition (GI%) was calculated as follows:
(§3) Growth percentage=Ti (test growth in the presence of compound at 10 µM )−Tz (time zero)/C (control growth)−Tz (time zero)×100 for Ti ≥ Tz;
(§4) Growth percentage=Ti (test growth in the presence of compound at 10 µM )−Tz (time zero)/Tz (time zero)×100 for Ti < Tz.
(§5) where values of 100, 40, 0, −40, and −100 mean no GI, 60% GI, no net G, 40% lethality, and all cells are dead, respectively.

SK-OV-3 = experiment: NCI-60 one-dose SRB screening; settings: Homo sapiens, SK-OV-3, Ovarian Cancer, 10 µM one dose, 48 h, read-out: growth percentage
Protocol: as §1, §2, §3, §4, §5

HT29 = experiment: NCI-60 one-dose SRB screening; settings: Homo sapiens, HT-29, HT29, Colon Cancer, 10 µM one dose, 48 h, read-out: growth percentage
Protocol: as §1, §2, §3, §4, §5

HOP-62 = experiment: NCI-60 one-dose SRB screening; settings: Homo sapiens, HOP-62, Non-Small Cell Lung Cancer, 10 µM one dose, 48 h, read-out: growth percentage
Protocol: as §1, §2, §3, §4, §5

SN12C = experiment: NCI-60 one-dose SRB screening; settings: Homo sapiens, Renal Cancer, 10 µM one dose, 48 h, read-out: growth percentage
Protocol: as §1, §2, §3, §4, §5

T-47D = experiment: NCI-60 one-dose SRB screening; settings: Homo sapiens, T47D, Breast Cancer, 10 µM one dose, 48 h, read-out: growth percentage
Protocol: as §1, §2, §3, §4, §5

SNB-19 = experiment: NCI-60 one-dose SRB screening; settings: Homo sapiens, SNB-19, CNS Cancer, 10 µM one dose, 48 h, read-out: growth percentage
Protocol: as §1, §2, §3, §4, §5

ACHN = experiment: NCI-60 one-dose SRB screening; settings: Homo sapiens, Renal Cancer, 10 µM one dose, 48 h, read-out: growth percentage
Protocol: as §1, §2, §3, §4, §5

IGROV1 = experiment: NCI-60 one-dose SRB screening; settings: Homo sapiens, IGROV-1, IGROV1, Ovarian Cancer, 10 µM one dose, 48 h, read-out: growth percentage
Protocol: as §1, §2, §3, §4, §5

OVCAR-8 = experiment: NCI-60 one-dose SRB screening; settings: Homo sapiens, OVCAR-8, Ovarian Cancer, 10 µM one dose, 48 h, read-out: growth percentage
Protocol: as §1, §2, §3, §4, §5

SW-620 = experiment: NCI-60 one-dose SRB screening; settings: Homo sapiens, SW-620, Colon Cancer, 10 µM one dose, 48 h, read-out: growth percentage
Protocol: as §1, §2, §3, §4, §5

MOLT-4 = experiment: NCI-60 one-dose SRB screening; settings: Homo sapiens, MOLT-4, Leukemia, 10 µM one dose, 48 h, read-out: growth percentage
Protocol: as §1, §2, §3, §4, §5

LOX IMVI = experiment: NCI-60 one-dose SRB screening; settings: Homo sapiens, Melanoma, 10 µM one dose, 48 h, read-out: growth percentage
Protocol: as §1, §2, §3, §4, §5

NCI-H522 = experiment: NCI-60 one-dose SRB screening; settings: Homo sapiens, NCI-H522, Non-Small Cell Lung Cancer, 10 µM one dose, 48 h, read-out: growth percentage
Protocol: as §1, §2, §3, §4, §5

MCF7 = experiment: NCI-60 one-dose SRB screening; settings: Homo sapiens, MCF7, Breast Cancer, 10 µM one dose, 48 h, read-out: growth percentage
Protocol: as §1, §2, §3, §4, §5

NCI/ADR-RES = experiment: NCI-60 one-dose SRB screening; settings: Homo sapiens, Ovarian Cancer, 10 µM one dose, 48 h, read-out: growth percentage
Protocol: as §1, §2, §3, §4, §5

BT-549 = experiment: NCI-60 one-dose SRB screening; settings: Homo sapiens, BT-549, Breast Cancer, 10 µM one dose, 48 h, read-out: growth percentage
Protocol: as §1, §2, §3, §4, §5

SK-MEL-2 = experiment: NCI-60 one-dose SRB screening; settings: Homo sapiens, SK-MEL-2, Melanoma, 10 µM one dose, 48 h, read-out: growth percentage
Protocol: as §1, §2, §3, §4, §5

MDA-MB-468 = experiment: NCI-60 one-dose SRB screening; settings: Homo sapiens, MDA-MB-468, Breast Cancer, 10 µM one dose, 48 h, read-out: growth percentage
Protocol: as §1, §2, §3, §4, §5

A498 = experiment: NCI-60 one-dose SRB screening; settings: Homo sapiens, A498, Renal Cancer, 10 µM one dose, 48 h, read-out: growth percentage
Protocol: as §1, §2, §3, §4, §5

NCI-H322M = experiment: NCI-60 one-dose SRB screening; settings: Homo sapiens, Non-Small Cell Lung Cancer, 10 µM one dose, 48 h, read-out: growth percentage
Protocol: as §1, §2, §3, §4, §5

[1] = tested on: NCI-59 human cancer cell lines; experiment: NCI-60 one-dose SRB screening, full panel and subpanels; settings: for activity at 10 µM: mean over the full panel, 10 µM one dose, 48 h, SRB, read-out: growth percentage, Mean
Protocol: as §1, §2, §3, §4, §5
Data are expressed as a one-dose mean graph of growth percentages including the mean, delta, and range.

| Structure (SMILES) | activity at 10 µM (M14) | activity at 10 µM (SK-OV-3) | activity at 10 µM (HT29) | activity at 10 µM (HOP-62) | activity at 10 µM (SN12C) | activity at 10 µM (T-47D) | activity at 10 µM (SNB-19) | activity at 10 µM (ACHN) | activity at 10 µM (IGROV1) | activity at 10 µM (OVCAR-8) | activity at 10 µM (SW-620) | activity at 10 µM (LOX IMVI) | activity at 10 µM (NCI-H522) | activity at 10 µM (MCF7) | activity at 10 µM (NCI/ADR-RES) | activity at 10 µM (BT-549) | activity at 10 µM (SK-MEL-2) | activity at 10 µM (MDA-MB-468) | activity at 10 µM (A498) | activity at 10 µM (NCI-H322M) | also measured |
| --- | --- | --- | --- | --- | --- | --- | --- | --- | --- | --- | --- | --- | --- | --- | --- | --- | --- | --- | --- | --- | --- |
| [O-][n+]1onc(-c2ccccc2)c1COc1ccc(Nc2ncnc3c2cnn3-c2ccccc2)cc1 [6a, 4-phenyl-3-((4-((1-phenyl-1H-pyrazolo[3,4-d]pyrimidin-4-yl)amino)phenoxy)methyl)-1,2,5-oxadiazole 2-oxide] | 104% | 102% | 96% | 107% | 97.3% | 96% | 105% | 105% | 95% | 105% | 106% | 94.3% | 99.2% | 96.1% | 102% | 95.4% | 105% | 107% | 103% | 109% | activity at 10 µM (MOLT-4): 87.4%; activity at 10 µM ([1]; Homo sapiens): 100%; mean growth inhibition % (MGI%, GI%) ([1]; full NCI-59 panel, 10 µM): no mean growth inhibition percentage |
| Cc1nc(Nc2ccc(OCc3c(-c4ccccc4)no[n+]3[O-])cc2)c2cnn(-c3ccccc3)c2n1 [6b, 3-((4-((6-methyl-1-phenyl-1H-pyrazolo[3,4-d]pyrimidin-4-yl)amino)phenoxy)methyl)-4-phenyl-1,2,5-oxadiazole 2-oxide] | 103% | 110% | 106% | 103% | 101% | 106% | 99.3% | 105% | 101% | 105% | 120% | 97.6% | 96.3% | 92.4% | 103% | 95% | 109% | 94.3% | 102% | 99.5% | activity at 10 µM (MOLT-4): 117%; activity at 10 µM ([1]; Homo sapiens): 102%; enhancement of the growth percentage (mean) ([1]; full NCI-59 panel, 10 µM): 1–5% |
| Cc1nn(-c2ccccc2)c2ncnc(Nc3ccc(OCc4c(-c5ccccc5)no[n+]4[O-])cc3)c12 [6c, 3-((4-((3-methyl-1-phenyl-1H-pyrazolo[3,4-d]pyrimidin-4-yl)amino)phenoxy)methyl)-4-phenyl-1,2,5-oxadiazole 2-oxide] | 90.3% | 104% | 93.2% | 105% | 87.9% | 72% | 101% | 97.3% | 97.1% | 101% | 107% | 101% | 84.8% | 83% | 91.7% | 101% | 103% | 97.1% | 86.3% | 91% | activity at 10 µM (MOLT-4): 92.9%; inhibition at 10 µM ([1]; Homo sapiens, full NCI-59 panel, 10 µM, read-out: mean growth inhibition % (MGI%, GI%)): 1.58 to 4.57%; activity at 10 µM ([1]; Homo sapiens): 96.2% |
| Cc1nc(Nc2ccc(OCc3c(-c4ccccc4)no[n+]3[O-])cc2)c2c(C)nn(-c3ccccc3)c2n1 [6d, 3-((4-((3,6-dimethyl-1-phenyl-1H-pyrazolo[3,4-d]pyrimidin-4-yl)amino)phenoxy)methyl)-4-phenyl-1,2,5-oxadiazole 2-oxide] | 96.2% | 109% | 119% | 107% | 98.4% | 104% | 99.6% | 95.5% | 106% | 107% | 119% | 96.6% | 105% | 95.4% | 102% | 102% | 121% | 107% | 112% | 99.9% | activity at 10 µM (MOLT-4): 110%; activity at 10 µM ([1]; Homo sapiens): 105%; enhancement of the growth percentage (mean) ([1]; full NCI-59 panel, 10 µM): 1–5% |
| [O-][n+]1onc(-c2ccccc2)c1COc1ccc(Nc2ncnc3c2cnn3-c2ccc(Br)cc2)cc1 [6e, 3-((4-((1-(4-bromophenyl)-1H-pyrazolo[3,4-d]pyrimidin-4-yl)amino)phenoxy)methyl)-4-phenyl-1,2,5-oxadiazole 2-oxide] | 102% | 104% | 94.5% | 105% | 96.4% | 99.9% | 103% | 103% | 106% | 105% | 115% | 111% | 96.1% | 87.9% | 107% | 95.8% | 99.2% | 106% | 94% | 97.9% | activity at 10 µM (MOLT-4): 103%; activity at 10 µM ([1]; Homo sapiens): 101%; enhancement of the growth percentage (mean) ([1]; full NCI-59 panel, 10 µM): 1–5% |
| Cc1nn(-c2ccc(Br)cc2)c2nc(CCl)[nH]c(=O)c12 [13c] | 106% | 104% | 104% | 98.5% | 100% | 91.5% | 97.1% | 94.8% | 95.1% | 102% | 110% | 98.5% | 85.5% | 82.3% | 102% | 101% | 103% | 94% | -88.8% | 104% | activity at 10 µM ([1]; Homo sapiens): 88.3% |

— paper PMC8880564, “Design, Synthesis, and Biological Evaluation of a Novel VEGFR-2 Inhibitor Based on a 1,2,5-Oxadiazole-2-Oxide Scaffold with MAPK Signaling Pathway Inhibition” (Pharmaceuticals, 2022)
